From patent US5620975A, “Pharmaceutical composition and method for the control of hypertension” (Hoffmann-La Roche Inc., priority 1991, dated 1997) come the findings set out here.

The subject of data set [1] is conscious dogs having renal hypertension. Nature of the data set: Blood pressure (MAP, telemetry) in conscious dogs having renal hypertension. The format is in vivo, dog (German sheepdogs). The settings on record: FIG. 1, conscious renal hypertensive dogs. Here is the method:
The antihypertensive effect of the combination was investigated in conscious dogs having renal hypertension. The hypertension was produced in German sheepdogs (weight 23-30 kg) using known methods in which one kidney is wrapped with cellophane and a stenosis is formed in the renal artery of the contralateral kidney using an occluder. The blood pressure was measured with a catheter implanted in the abdominal aorta and connected to a transmitter in the abdominal, cavity (telemetry). FIG. 1 illustrates the effect of cilazapril (10 mg/kg per os) and Compound A (30 mg/kg per os) alone, as well as, the effect of the simultaneous administration of the same dosages of the two substances (n=3 dogs for cilazapril and the combination, n=4 dogs for Compound A).

Data set [2] relates to media of the right carotid artery. Put plainly: Cross-section surface (area) of the media of the carotid artery in rats after 15 days of treatment. The format is in vivo, rat (male, strain RoRo). The settings on record: rat carotid artery; for area of the media: cilazapril 10 mg/kg daily in feed, Compound A 30 mg/kg by probang, control 89000±5000 μm^2, combination p<0.05 (Student t-test); for effect of individual treatment on media area: result in words. The procedure:
The influence of the individual compounds and their combination on the blood vessels was investigated in rats. Male rats, strain: RoRo (weight about 400 g; aged 4-5 months; Institut fur Biologisch-Medizinische Forschung, Fullinsdorf, CH) were used. The animals were divided randomly into a control group and into treatment groups. The duration of the treatment was 15 days. Cilazapril was admixed with the feed in an amount such that the daily intake was on average 10 mg/kg and Compound A (30 mg/kg) was administered using a probang. The control animals received the same laboratory feed without additive.
After 15 days, the rats were anaesthetized with ether and the carotid artery was fixed by perfusion with fixative agent (2.5% glutaraldehyde in 0.1M phosphate buffer, pH 7.4). For this, a probe was passed through the left ventricle of the heart into the ascending aorta (inflow) and a second probe was pushed through the right ventricle into the auricle (discharge).The vascular system was firstly rinsed with 10 ml of buffered isotonic NaCl solution and then fixed for 15 minutes with fixative at a pressure of 11.7 kPa. Subsequently, the right carotid artery was dissected, freed from adhering tissue and placed in 2.5% glutaraldehyde for further fixation. Each artery was divided into five vascular segments from the distal end to the proximal end, dehydrated and embedded in EPON 12 (Registered Mark of Shell A.G.). The middle segment was used for the morphological investigations. Semi-thin cross-sections (1 μm thick) were colored with toluidine blue and basic fuchsin. The cross-section surface of the media was measured with the morphometry system DIASYS (Datalab, Heinz Meyer, CH-3367 Thorigen).

A further data set in a line: Bioavailability. The settings on record: in vivo.

Counter-ions that a name gives are not always drawn.

As a reminder, the bioavailability is dose-corrected exposure relative to a reference, in per cent. Read a high bioavailability as good availability. Take `CCOC(=O)[C@H](CCc1ccccc1)N[C@H]1CCCN2CCC[C@@H](C(=O)O)N2C1=O` [cilazapril, 9(S)-[1(S)-ethoxycarbonyl-3-phenylpropylamino]octahydro-10-oxo-6H-pyridazo[1,2-a][1,2]diazepine-1(S)-carboxylic acid]: the “effect on blood pressure (MAP)” value in data set [1] (cilazapril 10 mg/kg per os, Compound A 30 mg/kg per os, alone or simultaneously, result in words) is “without effect”. In addition, in data set [2], the “area of the media” value stood at 84000±11000 μm^2 and the “effect of individual treatment on media area” value is given as “without effect”. In addition, the bioavailability in “Bioavailability” is 70%.
For `COCC(=O)OC1(CCN(C)CCCc2nc3ccccc3[nH]2)CCc2cc(F)ccc2C1C(C)C` (centres unmarked) [Compound A, [1S,2S]-2-[2-[[3-(2-benzimidazolyl)propyl]methylamino]ethyl]-6-fluoro-1,2,3,4-tetrahydro-1-isopropyl-2-naphthylmethoxyacetate dihydrochloride], the “lowering of blood pressure (MAP)” value in data set [1] (Compound A 30 mg/kg per os alone, n=4) is recorded as 10-20 mmHg. Moreover, in data set [2], the “area of the media” value was 87000±4000 μm^2 and the “effect of individual treatment on media area” value is “without effect”. Besides, the bioavailability in “Bioavailability” was 80 to 100%.
